Test results published in US6340689B1 (priority 1999, dated 2002).
In brackets after ≈: the same amount, converted by molar mass.

Experiments:
[1] = tested on: L. pneumophila serogroup 1; assay: microbe, parasite or virus in culture; assay type: cell-based, Legionella pneumophila; conditions: Legionella pneumophila; for MIC: 48 h, read-out: MIC Range; for MIC90: L. pneumophila serogroup 1 (n = 85)
[2] = tested on: L. pneumophila serogroup 2; assay: microbe, parasite or virus in culture; assay type: cell-based; conditions: Legionella pneumophila; for MIC: 48 h, read-out: MIC Range
[3] = tested on: L. pneumophila serogroup 3; assay: microbe, parasite or virus in culture; assay type: cell-based; conditions: Legionella pneumophila; for MIC: 48 h, read-out: MIC Range
[4] = tested on: L. pneumophila serogroup 4; assay: microbe, parasite or virus in culture; assay type: cell-based; conditions: Legionella pneumophila; for MIC: 48 h, read-out: MIC Range
[5] = tested on: L. pneumophila serogroup 5; assay: microbe, parasite or virus in culture; assay type: cell-based; conditions: Legionella pneumophila; for MIC: 48 h, read-out: MIC Range
[6] = tested on: L. pneumophila serogroup 6; assay: microbe, parasite or virus in culture; assay type: cell-based; conditions: Legionella pneumophila; for MIC: 48 h, read-out: MIC Range
[7] = tested on: L. pneumophila serogroup 7; assay: microbe, parasite or virus in culture; assay type: cell-based; conditions: Legionella pneumophila; for MIC: 48 h, read-out: MIC Range
[8] = tested on: L. pneumophila serogroup 8, 9; assay: microbe, parasite or virus in culture; assay type: cell-based; conditions: Legionella pneumophila; for MIC: 48 h, read-out: MIC Range
[9] = tested on: L. dumoffii; assay: organism not typed; assay type: cell-based; conditions: for MIC: 48 h, read-out: MIC Range
[10] = tested on: L. micadadei; assay: organism not typed; assay type: cell-based, L. micdadei; conditions: for MIC: 48 h, read-out: MIC Range
[11] = tested on: L. longbeacheae; assay: organism not typed; assay type: cell-based; conditions: for MIC: 48 h, read-out: MIC Range
[12] = tested on: Other Legionella spp.; assay: microbe, parasite or virus in culture; assay type: cell-based; conditions: for MIC: 48 h, read-out: MIC Range
[13] = tested on: Erythromycin-susceptible L. pneumophila; assay type: cell-based, Legionella pneumophila; conditions: Erythromycin-susceptible L. pneumophila (n = 15); 4 × MIC; mean ± SD
[14] = tested on: Erythromycin-susceptible Legionella spp. other than L. pneumophila; assay type: cell-based; conditions: Erythromycin-susceptible Legionella spp. (n = 13); 4 × MIC; mean ± SD
[15] = tested on: isolates of Legionella pneumophila and other Legionella spp.; assay: microbe, parasite or virus in culture; assay type: cell-based

SMILES | MIC50 [1] [µg/mL] | MIC [1] [µg/mL] | MIC90 [1] [µg/mL] | MIC50 [2] [µg/mL] | MIC90 [2] [µg/mL] | MIC [2] [ng/mL] | MIC50 [3] [µg/mL] | MIC90 [3] [µg/mL] | MIC [3] [µg/mL] | MIC50 [4] [µg/mL] | MIC90 [4] [µg/mL] | MIC [4] [ng/mL] | MIC50 [5] [µg/mL] | MIC90 [5] [µg/mL] | MIC [5] [µg/mL] | MIC50 [6] [µg/mL] | MIC90 [6] [µg/mL] | MIC [6] [ng/mL] | MIC50 [7] [µg/mL] | MIC90 [7] [µg/mL] | also measured
COc1c(N2C[C@@H]3CCCN[C@@H]3C2)c(F)cc2c(=O)c(C(=O)O)cn(C3CC3)c12 [Moxifloxacin] | 0.016 (≈ 0.0399 µM) | 0.004 to 0.03 (≈ 0.00996 to 0.0747 µM) | 0.016 (≈ 0.0399 µM) | 0.008 (≈ 0.0199 µM) | 0.008 (≈ 0.0199 µM) | 4 to 16 (≈ 0.00996 to 0.0399 µM) | 0.008 (≈ 0.0199 µM) | 0.016 (≈ 0.0399 µM) | 0.004 to 0.016 (≈ 0.00996 to 0.0399 µM) | 0.016 (≈ 0.0399 µM) | 0.016 (≈ 0.0399 µM) | 4 to 16 (≈ 0.00996 to 0.0399 µM) | 0.016 (≈ 0.0399 µM) | 0.016 (≈ 0.0399 µM) | 0.004 to 0.03 (≈ 0.00996 to 0.0747 µM) | 0.008 (≈ 0.0199 µM) | 0.016 (≈ 0.0399 µM) | 4 to 16 (≈ 0.00996 to 0.0399 µM) | ≤ 0.004 | 0.016 (≈ 0.0399 µM) | MIC [7]: 0.004 to 0.016 µg/mL (≈ 0.00996 to 0.0399 µM); MIC50 [8]: 0.016 µg/mL (≈ 0.0399 µM); MIC90 [8]: 0.016 µg/mL (≈ 0.0399 µM); MIC [8]: 0.016 µg/mL (≈ 0.0399 µM); MIC50 [9]: 0.03 µg/mL (≈ 0.0747 µM); MIC90 [9]: 0.03 µg/mL (≈ 0.0747 µM); MIC [9]: 0.008 to 0.03 µg/mL (≈ 0.0199 to 0.0747 µM); MIC50 [10]: 0.016 µg/mL (≈ 0.0399 µM); MIC90 [10]: 0.03 µg/mL (≈ 0.0747 µM); MICs fold more active than erythromycin [10]: 5 fold; MIC [10]: 0.008 to 0.03 µg/mL (≈ 0.0199 to 0.0747 µM); MIC50 [11]: 0.016 µg/mL (≈ 0.0399 µM); MIC90 [11]: 0.03 µg/mL (≈ 0.0747 µM); MIC [11]: 0.008 to 0.03 µg/mL (≈ 0.0199 to 0.0747 µM); MIC50 [12]: 0.008 µg/mL (≈ 0.0199 µM); MIC90 [12]: 0.03 µg/mL (≈ 0.0747 µM); MIC [12]: 0.008 to 0.03 µg/mL (≈ 0.0199 to 0.0747 µM); Mean PAE [13]: 3.59 ± 3 h; Mean PAE [14]: 1.18 ± 2 h; MIC90 [15]: 0.016 µg/mL (≈ 0.0399 µM)
CC[C@H]1OC(=O)[C@H](C)[C@@H](O[C@H]2C[C@@](C)(OC)[C@@H](O)[C@H](C)O2)[C@H](C)[C@@H](O[C@@H]2O[C@H](C)C[C@H](N(C)C)[C@H]2O)[C@](C)(OC)C[C@@H](C)C(=O)[C@H](C)[C@@H](O)[C@]1(C)O [Clarithromycin] | 0.06 (≈ 0.0802 µM) | 0.004 to 0.12 (≈ 0.00535 to 0.16 µM) | 0.06 (≈ 0.0802 µM) | 0.03 (≈ 0.0401 µM) | 0.06 (≈ 0.0802 µM) | 4 to 60 (≈ 0.00535 to 0.0802 µM) | 0.03 (≈ 0.0401 µM) | 0.06 (≈ 0.0802 µM) | 0.016 to 0.06 (≈ 0.0214 to 0.0802 µM) | 0.03 (≈ 0.0401 µM) | 0.06 (≈ 0.0802 µM) | 4 to 60 (≈ 0.00535 to 0.0802 µM) | 0.03 (≈ 0.0401 µM) | 0.06 (≈ 0.0802 µM) | 0.03 to 0.06 (≈ 0.0401 to 0.0802 µM) | 0.016 (≈ 0.0214 µM) | 0.06 (≈ 0.0802 µM) | 4 to 60 (≈ 0.00535 to 0.0802 µM) | 0.016 (≈ 0.0214 µM) | 0.06 (≈ 0.0802 µM) | MIC [7]: 0.016 to 0.06 µg/mL (≈ 0.0214 to 0.0802 µM); MIC50 [8]: 0.06 µg/mL (≈ 0.0802 µM); MIC90 [8]: 0.06 µg/mL (≈ 0.0802 µM); MIC [8]: 0.06 µg/mL (≈ 0.0802 µM); MIC50 [9]: 0.03 µg/mL (≈ 0.0401 µM); MIC90 [9]: 0.06 µg/mL (≈ 0.0802 µM); MIC [9]: 0.03 to 0.06 µg/mL (≈ 0.0401 to 0.0802 µM); MIC50 [10]: 0.06 µg/mL (≈ 0.0802 µM); MIC90 [10]: 0.06 µg/mL (≈ 0.0802 µM); MIC [10]: 0.03 to 0.12 µg/mL (≈ 0.0401 to 0.16 µM); MIC50 [11]: 0.06 µg/mL (≈ 0.0802 µM); MIC90 [11]: 0.06 µg/mL (≈ 0.0802 µM); MIC [11]: 0.008 to 0.06 µg/mL (≈ 0.0107 to 0.0802 µM); MIC50 [12]: 0.03 µg/mL (≈ 0.0401 µM); MIC90 [12]: 0.12 µg/mL (≈ 0.16 µM); MIC [12]: 0.004 to 0.12 µg/mL (≈ 0.00535 to 0.16 µM); Mean PAE [13]: 0.72 ± 2 h; Mean PAE [14]: 0.98 ± 2 h
